ChEMBL document CHEMBL5331063, “Recent advances of β-catenin small molecule inhibitors for cancer therapy: Current development and future perspectives” (Eur J Med Chem, 2022)

Key:
[1] = molecular target: T1, TCF4-CTNNB1 complex (Homo sapiens, UniProt P15884+P35222); test: Inhibition of beta-Catenin (301 to 670 residues)/TCF4 protein-protein interaction in human HCT-116 cells incubated for 20 hrs by TOPFLASH luciferase reporter assay; format: cell-based
T1 sequence (P35222 whole entry): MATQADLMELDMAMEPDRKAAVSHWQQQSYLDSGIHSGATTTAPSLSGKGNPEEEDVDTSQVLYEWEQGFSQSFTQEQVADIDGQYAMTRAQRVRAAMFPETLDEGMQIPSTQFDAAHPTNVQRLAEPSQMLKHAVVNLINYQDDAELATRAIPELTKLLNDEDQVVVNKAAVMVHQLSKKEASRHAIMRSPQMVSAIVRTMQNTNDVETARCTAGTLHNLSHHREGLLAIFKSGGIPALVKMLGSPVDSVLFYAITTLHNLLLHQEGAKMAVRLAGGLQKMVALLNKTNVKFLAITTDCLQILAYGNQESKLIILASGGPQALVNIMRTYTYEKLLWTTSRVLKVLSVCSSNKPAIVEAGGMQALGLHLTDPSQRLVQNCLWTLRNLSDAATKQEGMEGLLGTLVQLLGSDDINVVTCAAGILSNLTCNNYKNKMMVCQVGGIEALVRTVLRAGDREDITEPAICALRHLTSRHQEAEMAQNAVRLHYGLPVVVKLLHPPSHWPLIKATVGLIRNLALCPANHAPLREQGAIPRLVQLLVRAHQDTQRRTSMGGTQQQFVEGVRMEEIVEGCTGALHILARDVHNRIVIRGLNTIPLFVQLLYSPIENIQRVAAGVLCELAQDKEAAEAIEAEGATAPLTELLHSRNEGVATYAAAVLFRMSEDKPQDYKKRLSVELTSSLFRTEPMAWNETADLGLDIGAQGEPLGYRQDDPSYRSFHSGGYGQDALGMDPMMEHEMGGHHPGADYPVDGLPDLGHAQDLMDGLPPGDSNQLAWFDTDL
T1 sequence (P15884 whole entry): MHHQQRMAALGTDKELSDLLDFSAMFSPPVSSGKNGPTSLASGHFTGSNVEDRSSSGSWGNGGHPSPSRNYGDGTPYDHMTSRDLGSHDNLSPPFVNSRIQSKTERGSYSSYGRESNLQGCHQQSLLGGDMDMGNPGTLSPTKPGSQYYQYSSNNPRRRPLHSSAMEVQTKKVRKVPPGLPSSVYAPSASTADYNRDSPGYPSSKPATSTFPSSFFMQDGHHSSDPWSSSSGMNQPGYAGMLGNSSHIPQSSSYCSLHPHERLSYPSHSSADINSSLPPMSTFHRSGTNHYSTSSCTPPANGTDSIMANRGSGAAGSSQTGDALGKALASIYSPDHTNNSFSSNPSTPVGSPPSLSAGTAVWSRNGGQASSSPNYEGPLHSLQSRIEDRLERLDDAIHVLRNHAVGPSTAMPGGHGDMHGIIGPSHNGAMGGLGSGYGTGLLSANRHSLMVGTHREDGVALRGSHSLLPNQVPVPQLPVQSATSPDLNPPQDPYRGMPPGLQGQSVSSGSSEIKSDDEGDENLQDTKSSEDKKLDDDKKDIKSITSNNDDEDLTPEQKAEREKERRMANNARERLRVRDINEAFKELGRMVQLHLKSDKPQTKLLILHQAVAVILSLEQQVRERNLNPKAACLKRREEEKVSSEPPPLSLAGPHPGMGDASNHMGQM

[2] = molecular target: T2, Catenin beta-1/Cadherin-1 (Homo sapiens, UniProt P35222); test: Inhibition of His6-tagged human beta-Catenin (138 to 686 residues)/C-terminal fluorescein-labeled human E-cadherin (819 to 873 residues) protein-protein interaction assessed as inhibition constant by AlphaScreen competitive assay
T2 sequence (P35222 whole entry): T1 sequence (P35222 whole entry)
T2 sequence (P12830 whole entry): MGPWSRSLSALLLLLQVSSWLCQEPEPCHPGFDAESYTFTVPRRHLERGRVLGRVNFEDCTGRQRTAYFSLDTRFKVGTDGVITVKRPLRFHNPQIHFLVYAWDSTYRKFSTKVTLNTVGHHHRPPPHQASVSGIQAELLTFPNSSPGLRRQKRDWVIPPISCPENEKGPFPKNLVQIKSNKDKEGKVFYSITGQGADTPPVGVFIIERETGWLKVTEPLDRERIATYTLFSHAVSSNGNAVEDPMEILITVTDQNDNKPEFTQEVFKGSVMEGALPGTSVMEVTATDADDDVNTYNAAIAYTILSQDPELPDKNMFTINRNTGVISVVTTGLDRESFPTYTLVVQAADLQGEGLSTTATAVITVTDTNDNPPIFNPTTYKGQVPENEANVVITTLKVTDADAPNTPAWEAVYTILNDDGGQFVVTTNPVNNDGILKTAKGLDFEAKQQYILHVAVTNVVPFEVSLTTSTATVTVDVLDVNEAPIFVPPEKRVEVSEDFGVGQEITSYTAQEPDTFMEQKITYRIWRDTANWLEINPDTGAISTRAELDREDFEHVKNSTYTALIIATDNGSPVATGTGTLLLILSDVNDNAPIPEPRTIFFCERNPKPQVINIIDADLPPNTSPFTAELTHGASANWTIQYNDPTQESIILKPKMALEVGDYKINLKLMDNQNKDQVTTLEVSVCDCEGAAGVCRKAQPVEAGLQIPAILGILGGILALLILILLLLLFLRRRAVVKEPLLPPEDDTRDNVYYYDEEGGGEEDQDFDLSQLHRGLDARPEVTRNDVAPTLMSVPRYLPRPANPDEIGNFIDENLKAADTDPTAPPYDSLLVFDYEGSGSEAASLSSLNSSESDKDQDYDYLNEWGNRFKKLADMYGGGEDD

[3] = molecular target: T3, TCF4-CTNNB1 complex (Homo sapiens, UniProt P35222+Q9NQB0); test: Inhibition of beta-Catenin/GST-tagged TCF4 protein-protein interaction in human HCT-116 cells incubated for 24 hrs by immunoprecipitation assay; format: cell-based
T3 sequence (P35222 whole entry): T1 sequence (P35222 whole entry)
T3 sequence (P15884 whole entry): T1 sequence (P15884 whole entry)

[4] = molecular target: T4, beta-catenin-B-cell lymphoma 9 protein complex (Homo sapiens, UniProt O00512+P35222); test: Inhibition of Flag-tagged beta-Catenin (unknown origin)/Flag-tagged BCL9 (unknown origin) protein-protein interaction assessed as inhibition constant by ELISA assay; format: protein-complex assay
T4 sequence (P35222 whole entry): T1 sequence (P35222 whole entry)
T4 sequence (O00512 whole entry): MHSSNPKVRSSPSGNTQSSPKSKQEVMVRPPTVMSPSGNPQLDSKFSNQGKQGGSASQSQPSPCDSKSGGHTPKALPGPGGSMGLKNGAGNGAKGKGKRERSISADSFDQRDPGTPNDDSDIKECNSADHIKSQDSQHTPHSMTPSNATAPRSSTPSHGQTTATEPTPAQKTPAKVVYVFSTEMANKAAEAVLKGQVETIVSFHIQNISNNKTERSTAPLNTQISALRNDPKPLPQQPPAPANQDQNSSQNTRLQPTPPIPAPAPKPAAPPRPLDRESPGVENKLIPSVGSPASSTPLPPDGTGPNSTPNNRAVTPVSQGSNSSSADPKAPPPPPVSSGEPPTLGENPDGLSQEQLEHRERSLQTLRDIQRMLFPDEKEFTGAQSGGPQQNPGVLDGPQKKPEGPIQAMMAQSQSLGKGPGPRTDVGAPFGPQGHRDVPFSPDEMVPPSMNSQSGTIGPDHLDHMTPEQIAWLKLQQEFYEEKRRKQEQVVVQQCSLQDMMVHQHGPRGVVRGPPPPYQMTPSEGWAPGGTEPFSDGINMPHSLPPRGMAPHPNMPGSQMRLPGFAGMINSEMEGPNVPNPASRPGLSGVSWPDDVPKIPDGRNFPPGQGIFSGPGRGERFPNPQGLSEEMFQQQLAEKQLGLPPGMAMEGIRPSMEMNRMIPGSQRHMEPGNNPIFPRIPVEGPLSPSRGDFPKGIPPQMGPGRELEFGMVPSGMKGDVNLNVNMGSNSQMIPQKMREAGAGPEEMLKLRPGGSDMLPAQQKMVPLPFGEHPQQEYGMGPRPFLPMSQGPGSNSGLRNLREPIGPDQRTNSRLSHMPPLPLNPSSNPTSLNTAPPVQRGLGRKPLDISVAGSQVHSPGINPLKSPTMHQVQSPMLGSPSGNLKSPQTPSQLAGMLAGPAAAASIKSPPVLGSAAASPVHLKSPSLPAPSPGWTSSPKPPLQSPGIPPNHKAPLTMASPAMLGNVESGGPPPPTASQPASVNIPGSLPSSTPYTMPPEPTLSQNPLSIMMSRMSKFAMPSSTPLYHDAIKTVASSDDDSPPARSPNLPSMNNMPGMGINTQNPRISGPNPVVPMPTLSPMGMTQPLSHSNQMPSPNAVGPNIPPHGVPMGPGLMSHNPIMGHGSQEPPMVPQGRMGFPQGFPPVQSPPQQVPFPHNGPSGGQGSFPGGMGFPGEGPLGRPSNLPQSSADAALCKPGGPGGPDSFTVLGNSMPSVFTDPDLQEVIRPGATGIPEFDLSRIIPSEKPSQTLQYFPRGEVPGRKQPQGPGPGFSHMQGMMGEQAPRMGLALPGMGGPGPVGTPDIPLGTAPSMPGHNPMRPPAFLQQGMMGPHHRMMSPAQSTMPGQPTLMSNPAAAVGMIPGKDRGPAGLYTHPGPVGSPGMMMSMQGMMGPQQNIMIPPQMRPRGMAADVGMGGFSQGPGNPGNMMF

[5] = Inhibition of human beta-Catenin (138 to 686 residues)/C-terminal fluorescein-labeled human APC (1477 to 1519 residues) protein-protein interaction assessed as inhibition constant incubated for 30 mins by fluorescence polarization assay
[6] = system: SW480; test: Antiproliferative activity against human SW480 cells assessed as inhibition of cell growth by MTS assay; format: functional, cell-based
[7] = system: HCT-116; test: Antitumor activity against human HCT-116 cells xenografted with mouse assessed as reduction in tumor size at 20 mg/kg,ip administrated 3 times per week for 11 days; format: functional; design: scale not given: the % may be the effect or the level left; details: time 11 day
[8] = system: HCT-116; test: Antitumor activity against human HCT-116 cells xenografted with mouse assessed as reduction in tumor size at 100 mg/kg,ip administrated 3 times per week for 11 days; format: functional; design: scale not given: the % may be the effect or the level left; details: time 11 day
[9] = system: NCM460; test: Cytotoxicity against human NCM460 cells incubated for 48 hrs by MTT assay; format: toxicity, cell-based; details: ncm460, 48 h
[10] = system: HCT-116; test: Cytotoxicity against human HCT-116 cells incubated for 48 hrs by MTT assay; format: functional
[11] = system: SW480; test: Cytotoxicity against human SW480 cells incubated for 48 hrs by MTT assay; format: functional
[12] = molecular target: T3, TCF4-CTNNB1 complex; test: Inhibition of human beta-Catenin/GST-tagged TCF4 (unknown origin) protein-protein interaction incubated for 2 hrs by ELISA assay; format: protein-complex assay
[13] = molecular target: T1, TCF4-CTNNB1 complex; test: Inhibition of wild type beta-Catenin/TCF4 protein-protein interaction in human Hep3B cells incubated for 24 hrs by TOPFLASH reporter assay; format: cell-based
[14] = Inhibition of beta-Catenin S33Y mutant/TCF4 protein-protein interaction in human SNU-398 cells incubated for 24 hrs by TOPFLASH reporter assay; format: cell-based
[15] = molecular target: T3, TCF4-CTNNB1 complex; test: Inhibition of beta-Catenin/TCF4 (unknown origin) protein-protein interaction; format: protein-complex assay
[16] = Inhibition of Wnt1 signalling in human SW480 cells expressing ST-Luc incubated for 24 hrs by luciferase reporter assay; format: cell-based; details: SW480, 24 h
[17] = system: HT-29; test: Antiproliferative activity against human HT-29 cells assessed as inhibition of cell growth by MTS assay; format: functional, cell-based
[18] = system: HCT-116; test: Antiproliferative activity against human HCT-116 cells assessed as inhibition of cell growth by MTS assay; format: functional, cell-based

## COC(=O)c1cccc(NS(=O)(=O)c2ccc(OC)cc2)c1
[1]
  IC50: 530 nM

## O=C(Nc1ccc(O[C@H]2CCNC2)c(-c2ccc(F)cc2)c1)c1ccc(O[C@H]2CCNC2)c(-c2ccc(F)c(F)c2)c1
[2]
  Ki: 260 µM

## COc1c(CC(C)OC(=O)Oc2ccc(O)cc2)c2c3c(CC(C)OC(=O)c4ccccc4)c(OC)c(=O)c4c(O)cc(OC)c(c5c(OC)cc(O)c(c1=O)c52)c43 (configuration not stated)
[3]
  IC50: 10 µM

## CC(C)c1cc2c(c(O)c1O)[C@@]1(C(=O)O)CCCC(C)(C)C1CC2 (some centres not stated)
[4]
  Ki: 3.3 µM

## COC(=O)[C@H](CCC(=O)O)NC(=O)[C@H](CC(=O)O)NC(=O)[C@H](Cc1ccc2ccccc2c1)NC(=O)Cc1cc2cc(Cl)ccc2[nH]1
[5]
  Ki: 86.6 µM
[6]
  IC50: 232 µM

## O=c1ccc2cc(O)c(O)cc2o1 [ESCULETIN]
[7]
  Activity: 44%
[8]
  Activity: 64%

## C=C1C(=O)C23[C@H](O)C[C@@H]4C(C)(C)[C@@H](OC(C)=O)CC[C@@]4(C)[C@@H]2[C@@H]2O[C@@H]2C1[C@H]3O (some centres not stated)
[9]
  Activity: 10%
[10]
  Activity: >95%
[11]
  Activity: >95%

## COC(=O)c1c(C)cc2c(c1O)[C@]1(O)C(=O)c3cc4c(c(O)c3C(=O)[C@]1(OC)[C@H](O)C2)C(=O)C=C(N[C@@H]1O[C@H](C)[C@@H](OC)[C@H](O)[C@@H]1OC)C4=O
[12]
  IC50: 640 nM

## O=C(Nc1cnn(Cc2ccc(F)cc2)c1)C1CC1c1ccccc1 (configuration not stated)
[13]
  IC50: 25 µM
[14]
  IC50: 32 µM

## COc1c(CC(C)OC(=O)c2c(C)cc(O)cc2C)c2c3c(CC(C)OC(=O)c4c(C)cc(O)cc4O)c(OC)c(=O)c4c(O)cc(OC)c(c5c(OC)cc(O)c(c1=O)c52)c43 (configuration not stated)
[12]
  IC50: 4100 nM
[3]
  IC50: 10 µM

## COC(=O)c1cccc(NS(=O)(=O)c2ccc(C)cc2)c1
[1]
  IC50: 583 nM

## C[C@H]1[C@H]2N(C(=O)CN(C)N2C(=O)NCc2ccccc2)[C@@H](Cc2ccc(OP(=O)(O)O)cc2)C(=O)N1Cc1cccc2cccnc12
[15]
  IC50: 150 nM

## C=C1C(=O)[C@@]23[C@H](O)C[C@@H]4C(C)(C)CC[C@H](O)[C@@]4(COC(C)=O)[C@@H]2CC[C@H]1[C@H]3O
[16]
  IC50: 600 nM

## CCOC(=O)CC[C@H](NC(=O)[C@H](CC(=O)OCC)NC(=O)[C@H](Cc1ccc2ccccc2c1)NC(=O)Cc1cc2cc(Cl)ccc2[nH]1)C(=O)OC
[6]
  IC50: 28.7 µM
[17]
  IC50: 10 µM
[18]
  IC50: 10 µM
